Measurements from US10662204B2 (PFIZER INC., priority 2018, dated 2020).

Key:
KRAS G12C = KRAS G12C (Homo sapiens, UniProt P01116, G12C); test: Cell Activity Assay: accumulation of GDP-bound KRAS G12C in MIAPaCa-2 cells (Raf-1 RBD capture, MSD readout); type: cell-based; parameters: endogenous in cells; host or cells: MIAPaCa-2; settings: 6 hours, assay limit is 30.00
Procedure, shortened: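 IC50 came from a 4-parameter fit of Ras signal normalized between DMSO and full-inhibition controls. Readout: lysate GTP-Ras bound to immobilized Raf-1 RBD, quantified with pan-Ras antibody and MSD electrochemiluminescence. Lysates derived from MIAPaCa-2 cells treated 6 h with serially diluted compound, 0.3% DMSO.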

[1] = target: T1, GDP-loaded KRAS (1-169) G12C, C51S, C80L, C118S (Homo sapiens, UniProt P01116, C118S/C51S/C80L/G12C); test: Mass Spectrometry Reactivity Assay (MSRA): covalent adduct of compound and KRAS G12C, Percent Modification; type: binding; settings: for MSRA (% modification) 5.0 μM 0.017 hr / MSRA (% modification) 5.0 μM 0.25 hr: 5.0 μM compound; for MSRA (% modification) 10 μM 0.25 hr / MSRA (% modification) 10 μM 0.50 hr: 10 μM compound
T1 construct: GDP-loaded KRAS (1-169) G12C, C51S, C80L, C118S
Procedure, shortened: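 Covalent labelling is measured by intact mass: deconvoluted modified and unmodified peak intensities yield percent modification. Compound, usually 5 μM or 10 μM final, reacts at room temperature with 5 μM GDP-bound KRAS G12C (1-169, C51S/C80L/C118S) in Hepes pH 7.5/NaCl/glycerol, sampled at 1, 15, 30, 60 min.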

C=CC(=O)N1CCN(c2nc(O[C@@H]3CN(CCOC)C[C@H]3OC)nc3c(Oc4c(Cl)c(F)cc5[nH]ncc45)nccc23)CC1 [Example 18H, 1-[4-(8-[(5-chloro-6-fluoro-1H-indazol-4-yl)oxy]-2-{[(3R,4R)-4-methoxy-1-(2-methoxyethyl)pyrrolidin-3-yl]oxy}pyrido[3,4-d]pyrimidin-4-yl)piperazin-1-yl]prop-2-en-1-one]
IC50 (KRAS G12C): 0.07 µM | MSRA (% modification) 5.0 μM 0.017 hr [1]: 52%

C=CC(=O)N1CCN(c2nc(OC[C@H]3CCCN3C)nc3c(Oc4c(Cl)c(F)cc5[nH]ncc45)cccc23)CC1 [Example 20E, 1-[4-(8-[(5-chloro-6-fluoro-1H-indazol-4-yl)oxy]-2-{[(2R)-1-methylpyrrolidin-2-yl]methoxy}quinazolin-4-yl)piperazin-1-yl]prop-2-en-1-one]
IC50 (KRAS G12C): 1.02 µM | MSRA (% modification) 10 μM 0.25 hr [1]: 8%

C=CC(=O)N1CCN(c2nc(OC[C@]3(F)CCCN(C)C3)nc3c(Oc4c(Cl)c(F)cc5[nH]ncc45)nccc23)CC1 [Example 02I, 1-[4-(8-[(5-chloro-6-fluoro-1H-indazol-4-yl)oxy]-2-{[(3S)-3-fluoro-1-methylpiperidin-3-yl]methoxy}pyrido[3,4-d]pyrimidin-4-yl)piperazin-1-yl]prop-2-en-1-one]
IC50 (KRAS G12C): 0.049 µM | MSRA (% modification) 5.0 μM 0.25 hr [1]: 81%

C=CC(=O)N1CCN(c2nc(N3CC[C@H](N(C)C)C3)nc3c(Oc4c(C)ccc5[nH]ncc45)cccc23)CC1 [Example 08E]
IC50 (KRAS G12C): 10.7 µM | MSRA (% modification) 10 μM 0.50 hr [1]: 25%

C=CC(=O)N1CCN(c2nc(O[C@@H]3CN(C(C)C)C[C@H]3OC)nc3c(Oc4c(Cl)c(F)cc5[nH]ncc45)nccc23)CC1 [Example 20I, 1-[4-(8-[(5-chloro-6-fluoro-1H-indazol-4-yl)oxy]-2-{[(3R,4R)-4-methoxy-1-(propan-2-yl)pyrrolidin-3-yl]oxy}pyrido [3,4-d]pyrimidin-4-yl)piperazin-1-yl]prop-2-en-1-one]
IC50 (KRAS G12C): 0.016 µM | MSRA (% modification) 5.0 μM 0.017 hr [1]: 73%

C=CC(=O)N1CCN(c2nc(Oc3cccnc3OC)nc3c(Oc4c(Cl)c(F)cc5[nH]ncc45)nccc23)CC1 [Example 08I, 1-(4-{8-[(5-chloro-6-fluoro-1H-indazol-4-yl)oxy]-2-[(2-methoxy-pyridin-3-yl)oxy]pyrido [3,4-d]pyrimidin-4-yl}piperazin-1-yl)prop-2-en-1-one]
IC50 (KRAS G12C): 0.265 µM | MSRA (% modification) 5.0 μM 0.25 hr [1]: 65%

C=CC(=O)N1CCN(c2nc(OCC3CCOC3)nc3c(Oc4c(Cl)c(F)cc5[nH]ncc45)nc(Cl)cc23)CC1 (stereo not drawn) [Example 12G, 1-(4-{6-chloro-8-[(5-chloro-6-fluoro-1H-indazol-4-yl)oxy]-2-(tetrahydrofuran-3-ylmethoxy)pyrido[3,4-d]pyrimidin-4-yl}piperazin-1-yl)prop-2-en-1-one]
IC50 (KRAS G12C): 0.071 µM | MSRA (% modification) 10 μM 0.25 hr [1]: 75%

C=CS(=O)(=O)N1CCN(c2ncnc3c(Oc4c(Cl)c(C)cc5[nH]ncc45)nccc23)CC1 [Example 04, 8-[(5-chloro-6-methyl-1H-indazol-4-yl)oxy]-4-[4-(ethenylsulfonyl)piperazin-1-yl]pyrido[3,4-d]pyrimidine]
IC50 (KRAS G12C): 11.7 µM | MSRA (% modification) 10 μM 0.50 hr [1]: 25%

C=CC(=O)N1CCN(c2nc(O[C@@H]3CN(C)C[C@H]3OC)nc3c(Oc4c(Cl)c(F)cc5[nH]ncc45)nc(Cl)cc23)CC1 [Example 24G, 1-[4-(6-chloro-8-[(5-chloro-6-fluoro-1H-indazol-4-yl)oxy]-2-{[(3R,4R)-4-methoxy-1-methylpyrrolidin-3-yl]oxy}pyrido[3,4-d]pyrimidin-4-yl)piperazin-1-yl]prop-2-en-1-one]
IC50 (KRAS G12C): 0.004 µM | MSRA (% modification) 5.0 μM 0.017 hr [1]: 83% | MSRA (% modification) 5.0 μM 0.25 hr [1]: 84%

C=CC(=O)N1CCN(c2nc(OC[C@@H]3CCCN3C)nc3c(Oc4c(Cl)c(F)cc5[nH]ncc45)nc(Cl)cc23)C[C@@H]1C [Example 07G, 1-[(2S)-4-(6-chloro-8-[(5-chloro-6-fluoro-1H-indazol-4-yl)oxy]-2-{[(2S)-1-methylpyrrolidin-2-yl]methoxy}pyrido[3,4-d]pyrimidin-4-yl)-2-methylpiperazin-1-yl]prop-2-en-1-one]
IC50 (KRAS G12C): 0.404 µM | MSRA (% modification) 10 μM 0.25 hr [1]: 77%

C=CC(=O)N1CCN(c2nc(OC[C@H]3CCCO3)nc3c(Oc4c(Cl)c(F)cc5[nH]ncc45)nccc23)CC1 [Example 06H, 1-(4-{8-[(5-chloro-6-fluoro-1H-indazol-4-yl)oxy]-2-[(2R)-tetrahydrofuran-2-ylmethoxy]pyrido[3,4-d]pyrimidin-4-yl}piperazin-1-yl)prop-2-en-1-one]
IC50 (KRAS G12C): 0.611 µM | MSRA (% modification) 5.0 μM 0.25 hr [1]: 48% | MSRA (% modification) 10 μM 0.25 hr [1]: 60%

C=CC(=O)N1CCN(c2nc(N3CC(N(C)C)C3)nc3c(Oc4c(C)ccc5[nH]ncc45)cccc23)CC1 [Example 02E, 1-(4-{2-[3-(dimethylamino)azetidin-1-yl]-8-[(5-methyl-1H-indazol-4-yl)oxy]quinazolin-4-yl}piperazin-1-yl)prop-2-en-1-one]
IC50 (KRAS G12C): 6.46 µM | MSRA (% modification) 10 μM 0.50 hr [1]: 32%

C=CC(=O)N1CCN(c2ncnc3c(Oc4c(Cl)c(Cl)cc5[nH]ncc45)nccc23)CC1 [Example 29A, 1-(4-{8-[(5,6-dichloro-1H-indazol-4-yl)oxy]pyrido[3,4-d]pyrimidin-4-yl}piperazin-1-yl)prop-2-en-1-one]
IC50 (KRAS G12C): 0.391 µM | MSRA (% modification) 10 μM 0.25 hr [1]: 70% | MSRA (% modification) 10 μM 0.50 hr [1]: 76%

C=CC(=O)N1CCN(c2ncnc3c(Oc4c(C)ccc5[nH]ncc45)cccc23)C[C@H]1C [Example 03C, 1-[(2R)-2-methyl-4-{8-[(5-methyl-1H-indazol-4-yl)oxy]quinazolin-4-yl}piperazin-1-yl]prop-2-en-1-one]
IC50 (KRAS G12C): 24.2 µM | MSRA (% modification) 10 μM 0.25 hr [1]: 3% | MSRA (% modification) 10 μM 0.50 hr [1]: 8%

C=CC(=O)N1CCN(c2nc(OC[C@@H]3CC(F)(F)CN3C)nc3c(Oc4c(C)ccc5[nH]ncc45)nccc23)CC1 [Example 07B, 1-[4-(2-{[(2S)-4,4-difluoro-1-methylpyrrolidin-2-yl]methoxy}-8-[(5-methyl-1H-indazol-4-yl)oxy]pyrido[3,4-d]pyrimidin-4-yl)piperazin-1-yl]prop-2-en-1-one]
IC50 (KRAS G12C): 6.18 µM | MSRA (% modification) 10 μM 0.25 hr [1]: 15%

C=CC(=O)N1CCN(c2nc(Oc3cccnc3C)nc3c(Oc4c(Cl)c(F)cc5[nH]ncc45)nccc23)CC1 [Example 14I, 1-(4-{8-[(5-chloro-6-fluoro-1H-indazol-4-yl)oxy]-2-[(2-methyl-pyridin-3-yl)oxy]pyrido [3,4-d]pyrimidin-4-yl}piperazin-1-yl)prop-2-en-1-one]
IC50 (KRAS G12C): 0.366 µM | MSRA (% modification) 5.0 μM 0.25 hr [1]: 14%

C=CC(=O)N1CCN(c2nc(OCC3CC(=O)N(C)C3)nc3c(Oc4c(Cl)c(F)cc5[nH]ncc45)nccc23)CC1 (stereo not drawn) [Example 03J, 4-[({4-(4-acryloylpiperazin-1-yl)-8-[(5-chloro-6-fluoro-1H-indazol-4-yl)oxy]pyrido[3,4-d]pyrimidin-2-yl}oxy)methyl]-1-methylpyrrolidin-2-one]
IC50 (KRAS G12C): 0.855 µM | MSRA (% modification) 5.0 μM 0.25 hr [1]: 77%

C=CC(=O)N1C[C@H](C)N(c2nc(N3CC(N(C)C)C3)nc3c(Oc4c(C)ccc5[nH]ncc45)nc(C)cc23)C[C@H]1C [Example 06B, 1-[(2R,5S)-4-{2-[3-(Dimethylamino)azetidin-1-yl]-6-methyl-8-[(5-methyl-1H-indazol-4-yl)oxy]pyrido[3,4-d]pyrimidin-4-yl}-2,5-dimethylpiperazin-1-yl]prop-2-en-1-one]
IC50 (KRAS G12C): > 30 µM | MSRA (% modification) 10 μM 0.50 hr [1]: 9%

C=CC(=O)N1CCN(c2nc(OC[C@]3(F)CCCN(C)C3)nc3c(Oc4c(Cl)c(F)cc5[nH]ncc45)nc(Cl)cc23)CC1 [Example 25G, 1-[4-(6-chloro-8-[(5-chloro-6-fluoro-1H-indazol-4-yl)oxy]-2-{[(3S)-3-fluoro-1-methylpiperidin-3-yl]methoxy}pyrido[3,4-d]pyrimidin-4-yl)piperazin-1-yl]prop-2-en-1-one]
IC50 (KRAS G12C): 0.009 µM | MSRA (% modification) 5.0 μM 0.017 hr [1]: 73%

C=CC(=O)N1CCN(c2nc(OC[C@@H]3C[C@H](F)CN3C)nc3c(Oc4c(Cl)c(F)cc5[nH]ncc45)nc(Cl)cc23)CC1 [Example 21G, 1-[4-(6-chloro-8-[(5-chloro-6-fluoro-1H-indazol-4-yl)oxy]-2-{[(2S,4S)-4-fluoro-1-methylpyrrolidin-2-yl]methoxy}pyrido[3,4-d]pyrimidin-4-yl)piperazin-1-yl]prop-2-en-1-one]
IC50 (KRAS G12C): 0.075 µM | MSRA (% modification) 10 μM 0.25 hr [1]: 80%

C=CC(=O)N1CCN(c2nc(Oc3cccc4c3CCN(C)C4)nc3c(Oc4c(Cl)c(Cl)cc5[nH]ncc45)nccc23)CC1 [Example 50I, 1-(4-{8-[(5,6-dichloro-1H-indazol-4-yl)oxy]-2-[(2-methyl-1,2,3,4-tetrahydro-isoquinolin-5-yl)oxy]pyrido [3,4-d]pyrimidin-4-yl}piperazin-1-yl)prop-2-en-1-one]
IC50 (KRAS G12C): 0.008 µM | MSRA (% modification) 5.0 μM 0.017 hr [1]: 70%

C=CC(=O)N1CCN(c2nc(Oc3cccc4c3CCN(C(C)C)C4)nc3c(Oc4c(C)ccc5[nH]ncc45)nccc23)CC1 [Example 30I, 1-[4-(8-[(5-methyl-1H-indazol-4-yl)oxy]-2-{[2-(propan-2-yl)-1,2,3,4-tetrahydro-isoquinolin-5-yl]oxy}pyrido [3,4-d]pyrimidin-4-yl)piperazin-1-yl]prop-2-en-1-one]
IC50 (KRAS G12C): 0.03 µM | MSRA (% modification) 5.0 μM 0.017 hr [1]: 45%
